Measurements reported in ChEMBL document CHEMBL5046315, “CRCM5484: A BET-BDII Selective Compound with Differential Anti-leukemic Drug Modulation” (J Med Chem, 2022).
Active and inactive are the calls of the source. No cut-off for these calls is given here.

Legend:
Type in all cases: functional, cell-based
[1] = system: U-937; test: Potentiation of topotecan-induced antileukemic activity against human U-937 cells at 4.3 uM in presence of bone-marrow derived stromal cell-conditioned medium
[2] = system: MOLM-14; test: Potentiation of idarubicin-induced antileukemic activity against human MOLM-14 cells at 4.3 uM in presence of bone-marrow derived stromal cell-conditioned medium
[3] = system: MOLM-14; test: Potentiation of vincristine-induced antileukemic activity against human MOLM-14 cells at 4.3 uM in presence of bone-marrow derived stromal cell-conditioned medium
[4] = system: MOLM-14; test: Potentiation of carfilzomib-induced antileukemic activity against human MOLM-14 cells at 4.3 uM in presence of bone-marrow derived stromal cell-conditioned medium
[5] = system: U-937; test: Potentiation of cladribine-induced antileukemic activity against human U-937 cells at 4.3 uM in presence of bone-marrow derived stromal cell-conditioned medium
[6] = system: U-937; test: Potentiation of tretinoin-induced antileukemic activity against human U-937 cells at 4.3 uM in presence of bone-marrow derived stromal cell-conditioned medium
[7] = system: U-937; test: Potentiation of azacitidine-induced antileukemic activity against human U-937 at 4.3 uM in presence of bone-marrow derived stromal cell-conditioned medium
[8] = system: U-937; test: Potentiation of gefitinib-induced antileukemic activity against human U-937 cells at 4.3 uM in presence of bone-marrow derived stromal cell-conditioned medium
[9] = system: CCRF-CEM; test: Potentiation of AC-4-130-induced antileukemic activity against human CCRF-CEM cells at 4.3 uM in presence of bone-marrow derived stromal cell-conditioned medium
[10] = system: U-937; test: Potentiation of panobinostat-induced antileukemic activity against human U-937 cells at 4.3 uM in presence of bone-marrow derived stromal cell-conditioned medium
[11] = system: CCRF-CEM; test: Potentiation of idarubicin-induced antileukemic activity against human CCRF-CEM cells at 4.3 uM in presence of bone-marrow derived stromal cell-conditioned medium
[12] = system: CCRF-CEM; test: Potentiation of navitoclax-induced antileukemic activity against human CCRF-CEM cells at 4.3 uM in presence of bone-marrow derived stromal cell-conditioned medium
[13] = system: MOLM-14; test: Potentiation of birinapant-induced antileukemic activity against human MOLM-14 cells at 4.3 uM in presence of bone-marrow derived stromal cell-conditioned medium
[14] = system: CCRF-CEM; test: Potentiation of volasertib-induced antileukemic activity against human CCRF-CEM cells at 4.3 uM in presence of bone-marrow derived stromal cell-conditioned medium
[15] = system: CCRF-CEM; test: Potentiation of GSK2879552-induced antileukemic activity against human CCRF-CEM cells at 4.3 uM in presence of bone-marrow derived stromal cell-conditioned medium
[16] = system: U-937; test: Potentiation of VX680-induced antileukemic activity against human U-937 cells at 4.3 uM in presence of bone-marrow derived stromal cell-conditioned medium
[17] = system: CCRF-CEM; test: Potentiation of etoposide-induced antileukemic activity against human CCRF-CEM cells at 4.3 uM in presence of bone-marrow derived stromal cell-conditioned medium
[18] = system: CCRF-CEM; test: Potentiation of daunorubicine-induced antileukemic activity against human CCRF-CEM cells at 4.3 uM in presence of bone-marrow derived stromal cell-conditioned medium
[19] = system: U-937; test: Potentiation of etoposide-induced antileukemic activity against human U-937 cells at 4.3 uM in presence of bone-marrow derived stromal cell-conditioned medium
[20] = system: CCRF-CEM; test: Potentiation of MK2206-induced antileukemic activity against human CCRF-CEM cells at 4.3 uM in presence of bone-marrow derived stromal cell-conditioned medium
[21] = system: U-937; test: Potentiation of GSK126-induced antileukemic activity against human U-937 cells at 4.3 uM in presence of bone-marrow derived stromal cell-conditioned medium
[22] = system: CCRF-CEM; test: Potentiation of bleomycine-induced antileukemic activity against human CCRF-CEM cells at 4.3 uM in presence of bone-marrow derived stromal cell-conditioned medium
[23] = system: NB-4; test: Cytotoxicity against human NB-4 cells assessed as reduction in cell viability incubated for 72 hrs; conditions: NB-4, 72 h
[24] = system: MOLM-14; test: Potentiation of quizartinib-induced antileukemic activity against human MOLM-14 cells at 4.3 uM in presence of bone-marrow derived stromal cell-conditioned medium
[25] = system: MOLM-14; test: Potentiation of dexamethasone-induced antileukemic activity against human MOLM-14 cells at 4.3 uM in presence of bone-marrow derived stromal cell-conditioned medium
[26] = system: U-937; test: Potentiation of tipifarnib-induced antileukemic activity against human U-937 cells at 4.3 uM in presence of bone-marrow derived stromal cell-conditioned medium
[27] = system: U-937; test: Potentiation of -nutlin 3-induced antileukemic activity against human U-937 cells at 4.3 uM in presence of bone-marrow derived stromal cell-conditioned medium
[28] = system: CCRF-CEM; test: Potentiation of hydroxychloroquine-induced antileukemic activity against human CCRF-CEM cells at 4.3 uM in presence of bone-marrow derived stromal cell-conditioned medium
[29] = system: CCRF-CEM; test: Potentiation of decitabine-induced antileukemic activity against human CCRF-CEM cells at 4.3 uM in presence of bone-marrow derived stromal cell-conditioned medium
[30] = system: U-937; test: Potentiation of temsirolimus-induced antileukemic activity against human U-937 cells at 4.3 uM in presence of bone-marrow derived stromal cell-conditioned medium
[31] = system: CCRF-CEM; test: Potentiation of AG-221-induced antileukemic activity against human CCRF-CEM cells at 4.3 uM in presence of bone-marrow derived stromal cell-conditioned medium
[32] = system: MOLM-14; test: Potentiation of clofarabine-induced antileukemic activity against human MOLM-14 cells at 4.3 uM in presence of bone-marrow derived stromal cell-conditioned medium
[33] = system: MOLM-14; test: Potentiation of AT9283-induced antileukemic activity against human MOLM-14 cells at 4.3 uM in presence of bone-marrow derived stromal cell-conditioned medium
[34] = system: CCRF-CEM; test: Potentiation of topotecan-induced antileukemic activity against human CCRF-CEM cells at 4.3 uM in presence of bone-marrow derived stromal cell-conditioned medium
[35] = system: MOLM-14; test: Potentiation of SGI-1776-induced antileukemic activity against human MOLM-14 cells at 4.3 uM in presence of bone-marrow derived stromal cell-conditioned medium
[36] = system: U-937; test: Potentiation of prima1-induced antileukemic activity against human U-937 cells at 4.3 uM in presence of bone-marrow derived stromal cell-conditioned medium
[37] = system: CCRF-CEM; test: Potentiation of tipifarnib-induced antileukemic activity against human CCRF-CEM cells at 4.3 uM in presence of bone-marrow derived stromal cell-conditioned medium
[38] = system: CCRF-CEM; test: Potentiation of midostaurin-induced antileukemic activity against human CCRF-CEM cells at 4.3 uM in presence of bone-marrow derived stromal cell-conditioned medium
[39] = system: MOLM-14; test: Potentiation of crenolatinib-induced antileukemic activity against human MOLM-14 cells at 4.3 uM in presence of bone-marrow derived stromal cell-conditioned medium
[40] = system: U-937; test: Potentiation of lapatinib-induced antileukemic activity against human U-937 cells at 4.3 uM in presence of bone-marrow derived stromal cell-conditioned medium
[41] = system: MOLM-14; test: Potentiation of GSK2879552-induced antileukemic activity against human MOLM-14 cells at 4.3 uM in presence of bone-marrow derived stromal cell-conditioned medium

CC(=O)N1CCc2c(sc3nc(SCC(=O)Nc4cccnc4C)n(Cc4ccco4)c(=O)c23)C1
Activity [1]: inactive
Activity [2]: inactive
Activity [3]: inactive
Activity [4]: inactive
Activity [5]: inactive
Activity [6]: inactive
Activity [7]: inactive
Activity [8]: inactive
Activity [9]: inactive
Activity [10]: inactive
Activity [11]: inactive
Activity [12]: inactive
Activity [13]: inactive
Activity [14]: inactive
Activity [15]: inactive
Activity [16]: inactive
Activity [17]: inactive
Activity [18]: inactive
Activity [19]: inactive
Activity [20]: inactive
Activity [21]: inactive
Activity [22]: inactive
EC50 [23]: > 5 µM
Activity [24]: inactive
Activity [25]: inactive
Activity [26]: inactive
Activity [27]: inactive
Activity [28]: inactive
Activity [29]: inactive
Activity [30]: inactive
Activity [31]: inactive
Activity [32]: inactive
Activity [33]: inactive
Activity [34]: inactive
Activity [35]: inactive
Activity [36]: inactive
Activity [37]: inactive
Activity [38]: inactive
Activity [39]: inactive
Activity [40]: inactive
Activity [41]: inactive
